According to patent US20220305012A1, “L[…] TREATING SLEEP ISSUES” (EISAI R&D MANAGEMENT CO., LTD., priority 2019, published 2022):

Tests used:
Type in all cases: in vivo, human
[1] = tested on: Subjects Having Insomnia Disorder; experiment: Example 3: proportion of sSOL responders (pooled Examples 1 and 2)
Experimental: (§1) The data collected in studies described in Example 1 and Example 2 were pooled and the response of each subject was analyzed.

[2] = tested on: Subjects Having Insomnia Disorder; experiment: Example 1: subjective wake after sleep onset (sWASO), Sleep Diary
Excerpt: As used herein, the term “subjective wake after sleep onset”, abbreviated as “sWASO”, means the sum of estimated minutes of wake during the night after initial sleep onset until the time the subject stopped trying to sleep for the night, operationalized as the time the subject got out of bed for the day. In some embodiments, sWASO is derived from data entered in a subject's Sleep Diary. As used herein, an “improvement of sWASO” means a reduction in sWASO.
In some embodiments, sleep diaries were used to assess sleep parameters reported by subjects (i.e., subjective assessments) including subjective sleep onset latency (sSOL), subjective sleep efficiency (sSE), subjective WASO (sWASO), and subjective total sleep time (sTST). Subjects were instructed to complete the Sleep Diary developed based on the consensus Sleep Diary as described in Carney et al., “The consensus sleep diary: standardizing prospective sleep self-monitoring,” Sleep 2012; 35(2):287-302. In some embodiments, the Sleep Diary was used to assess the subject's global perception of quality of sleep on the previous night with the following question: “How would you rate the quality of your sleep last night?” Subjects rated the quality of their sleep on a scale from 1 to 9, with 1 being extremely poor and 9 being extremely good. In some embodiments, the Sleep Diary was used to assess subjective ratings of morning sleepiness with the following question: “How alert/sleepy do you feel this morning?” Subjects rated their sleepiness/alertness level on a Likert scale from 1 to 9, with 1 being extremely sleepy and 9 being extremely alert.
sWASO—subjective wake after sleep onset: sum of estimated minutes of wake during the night after initial sleep onset until the time the subject stopped trying to sleep for the night, operationalized as the time the subject got out of bed for the day.
Subjects were randomized in a double-blind manner and received either placebo, 5 mg of lemborexant, or 10 mg of lemborexant (approximately 1:1:1 randomization). All subjects underwent routine safety monitoring through the study, including assessments of treatment-emergent adverse events, 12-lead electrocardiograms, vital signs, weight, and clinical hematology and blood chemistry labs. Suicidality was assessed using the eC-SSRS.
Treatment period 1 began with the first dose of randomized study medication (placebo, 5 mg of lemborexant, or 10 mg of lemborexant). Subjects completed sleep diaries daily in the morning, within one hour of waketime. The subjects were assessed by a clinician one month, two months, three months, and six months after initiation of Treatment period 1. The following assessments were conducted:
This study had two key secondary endpoints. The first key secondary endpoint was the mean change from study baseline in subjective sleep efficiency at month 6. The second key secondary endpoint was the mean change from study baseline of subjective wake after sleep onset at month 6.

[3] = tested on: Subjects Having Insomnia Disorder; experiment: Example 3: proportion of subjects whose ISI Total Score decreased by 7 or more points (pooled); details: for percentage of subjects whose ISI Total Score decreased by 7 or more points: end of month 1, pooled Examples 1 and 2; for Total Insomnia Severity Index Score Decreased by ≥7 Points, Difference of proportion vs. Placebo / Total Insomnia Severity Index Score Decreased from Baseline to Month 1 by ≥7 Points, Responder No, n (%) / Total Insomnia Severity Index Score Decreased from Baseline to Month 1 by ≥7 Points, Responder Yes, n (%): Month 1
Experimental: as §1
Table 32 provides the summary and analysis of responders, defined as those subjects whose Total ISI Score decreased at the end of month 1 by 7 or more points compared to baseline. Table 33 provides the summary and analysis of responders, defined as those subjects whose ISI Total Score decreased compared to baseline and was less than 10 at month 1.

[4] = First 7 Days, Lemborexant 10 mg

Cc1ncc(OC[C@@]2(c3cccc(F)c3)C[C@H]2C(=O)Nc2ccc(F)cn2)c(C)n1 [Lemborexant, (1R,2S)-2-(((2,4-dimethylpyrimidin-5-yl)oxy)methyl)-2-(3-fluorophenyl)-N-(5-fluoropyridin-2-yl)cyclopropanecarboxamide]
Subjective Sleep Onset Latency Responder, No, (%) ([1]; First 7 Days, Lemborexant 5 mg): (86.3) %
Subjective Sleep Onset Latency Responder, Yes, (%) ([1]; First 7 Days, Lemborexant 5 mg): (12.4) %
Subjective Sleep Onset Latency Responders, Difference of proportion vs. Placebo ([1]; First 7 Days, Lemborexant 5 mg): 7.80
Subjective Sleep Onset Latency Responder, No, (%) [1, 4]: (86.2) %
Subjective Sleep Onset Latency Responder, Yes, (%) [1, 4]: (12.6) %
Subjective Sleep Onset Latency Responders, Difference of proportion vs. Placebo [1, 4]: 7.80
Subjective Sleep Onset Latency Responder, No, (%) ([1]; Month 1, Lemborexant 5 mg): (76.8) %
Subjective Sleep Onset Latency Responder, Yes, (%) ([1]; Month 1, Lemborexant 5 mg): (18.4) %
Subjective Sleep Onset Latency Responders, Difference of proportion vs. Placebo ([1]; Month 1, Lemborexant 5 mg): 8.28
Subjective Sleep Onset Latency Responder, No, (%) ([1]; Month 1, Lemborexant 10 mg): (75.8) %
Subjective Sleep Onset Latency Responder, Yes, (%) ([1]; Month 1, Lemborexant 10 mg): (21.0) %
Subjective Sleep Onset Latency Responders, Difference of proportion vs. Placebo ([1]; Month 1, Lemborexant 10 mg): 11.14
proportion of sSOL responders compared with placebo ([1]; both doses, first 7 days and end of month 1, responder: sSOL of 20 or less minutes provided baseline sSOL at least 30 minutes (Table 30)): statistically significantly superior
subjective wake after sleep onset compared with placebo ([2]; 5 mg and 10 mg, at the equivalent timepoint (Table 4)): greater reduction in mean subjective wake after sleep onset than subjects treated with placebo
sWASO, Mean ([2]; 5 mg, First 7 Nights): 113.53 min
sWASO, Median ([2]; 5 mg, First 7 Nights): 87.86 min
sWASO, Mean ([2]; 5 mg, Month 1): 107.07 min
sWASO, Median ([2]; 5 mg, Month 1): 85.29 min
sWASO, Mean ([2]; 5 mg, Month 3): 89.48 min
sWASO, Median ([2]; 5 mg, Month 3): 66.43 min
sWASO, Mean ([2]; 5 mg, Month 6): 81.79 min
sWASO, Median ([2]; 5 mg, Month 6): 60.00 min
sWASO, Mean ([2]; 5 mg, Study Baseline): 132.77 min
sWASO, Median ([2]; 5 mg, Study Baseline): 114.71 min
sWASO Change from Study Baseline, Mean ([2]; 5 mg, after 1 Month): -23.42 min
sWASO Change from Study Baseline, Median ([2]; 5 mg, after 1 Month): -19.29 min
sWASO Change from Study Baseline, Mean ([2]; 5 mg, after 3 Months): -42.98 min
sWASO Change from Study Baseline, Median ([2]; 5 mg, after 3 Months): -34.57 min
sWASO Change from Study Baseline, Mean ([2]; 5 mg, after 6 Months): -51.45 min
sWASO Change from Study Baseline, Median ([2]; 5 mg, after 6 Months): -44.02 min
sWASO Change from Study Baseline, Mean ([2]; 5 mg, after 7 Nights): -20.21 min
sWASO Change from Study Baseline, Median ([2]; 5 mg, after 7 Nights): -16.01 min
sWASO LSM treatment difference: Lemborexant/Placebo ([2]; 5 mg, change from Study Baseline after 1 Month): -5.514 min
sWASO LSM treatment difference: Lemborexant/Placebo ([2]; 5 mg, change from Study Baseline after 3 Months): -13.424 min
sWASO LSM treatment difference: Lemborexant/Placebo ([2]; 5 mg, change from Study Baseline after 6 Months): -17.474 min
sWASO LSM treatment difference: Lemborexant/Placebo ([2]; 5 mg, change from Study Baseline after 7 Nights): -14.328 min
sWASO, Mean ([2]; 10 mg, First 7 Nights): 113.77 min
sWASO, Median ([2]; 10 mg, First 7 Nights): 92.29 min
sWASO, Mean ([2]; 10 mg, Month 1): 109.42 min
sWASO, Median ([2]; 10 mg, Month 1): 95.00 min
sWASO, Mean ([2]; 10 mg, Month 3): 95.66 min
sWASO, Median ([2]; 10 mg, Month 3): 70.00 min
sWASO, Mean ([2]; 10 mg, Month 6): 86.38 min
sWASO, Median ([2]; 10 mg, Month 6): 62.14 min
sWASO, Mean ([2]; 10 mg, Study Baseline): 136.83 min
sWASO, Median ([2]; 10 mg, Study Baseline): 120.57 min
sWASO Change from Study Baseline, Mean ([2]; 10 mg, after 1 Month): -26.82 min
sWASO Change from Study Baseline, Median ([2]; 10 mg, after 1 Month): -22.29 min
sWASO Change from Study Baseline, Mean ([2]; 10 mg, after 3 Months): -39.42 min
sWASO Change from Study Baseline, Median ([2]; 10 mg, after 3 Months): -36.07 min
sWASO Change from Study Baseline, Mean ([2]; 10 mg, after 6 Months): -48.12 min
sWASO Change from Study Baseline, Median ([2]; 10 mg, after 6 Months): -47.43 min
sWASO Change from Study Baseline, Mean ([2]; 10 mg, after 7 Nights): -23.30 min
sWASO Change from Study Baseline, Median ([2]; 10 mg, after 7 Nights): -20.71 min
sWASO LSM treatment difference: Lemborexant/Placebo ([2]; 10 mg, change from Study Baseline after 1 Month): -7.005 min
sWASO LSM treatment difference: Lemborexant/Placebo ([2]; 10 mg, change from Study Baseline after 3 Months): -10.079 min
sWASO LSM treatment difference: Lemborexant/Placebo ([2]; 10 mg, change from Study Baseline after 6 Months): -12.671 min
sWASO LSM treatment difference: Lemborexant/Placebo ([2]; 10 mg, change from Study Baseline after 7 Nights): -16.720 min
percentage of subjects whose ISI Total Score decreased by 7 or more points ([3]; 5 mg): 47.3%
percentage of subjects whose ISI Total Score decreased by 7 or more points ([3]; 10 mg): 47.8%
Total Insomnia Severity Index Score Decreased by ≥7 Points, Difference of proportion vs. Placebo ([3]; Lemborexant 5 mg): 13.12
Total Insomnia Severity Index Score Decreased from Baseline to Month 1 by ≥7 Points, Responder No, n (%) ([3]; Lemborexant 5 mg): 283 (48.6) n (%)
Total Insomnia Severity Index Score Decreased from Baseline to Month 1 by ≥7 Points, Responder Yes, n (%) ([3]; Lemborexant 5 mg): 275 (47.3) n (%)
Total Insomnia Severity Index Score Decreased by ≥7 Points, Difference of proportion vs. Placebo ([3]; Lemborexant 10 mg): 13.61
Total Insomnia Severity Index Score Decreased from Baseline to Month 1 by ≥7 Points, Responder No, n (%) ([3]; Lemborexant 10 mg): 261 (44.7) n (%)
Total Insomnia Severity Index Score Decreased from Baseline to Month 1 by ≥7 Points, Responder Yes, n (%) ([3]; Lemborexant 10 mg): 279 (47.8) n (%)
difference of proportion of responders (ISI Total Score decreased by 7 or more points) versus placebo ([3]; both doses, month 1 (Table 32)): statistically significant
